Laboratory results as given in patent US11324768B2, “Applications of triacetyl-3-hydroxyl phenyl adenosine in treating vascular inflammations or improving vascular endothelium functions” (priority 2016, dated 2022).

Tested on: thoracic aorta
Test: Endothelial function of thoracic aorta in ApoE−/− mice (vascular ring, Ach / SNP relaxation)
Type: in vivo
Method: After 1 week of adaptive feeding, the animals were randomly divided into 7 groups according to body weight: normal control group, model control group A769662 (30 mg/kg) administration group, metformin (260 mg/kg) administration group, IMM-H007 low, medium, and high administration groups (50, 100, 200 mg/kg), 8 in each group, and were given a high-fat diet (78.6% basal diet, 10% lard, 1.0% cholesterol, 10% egg yolk powder, and 0.4% bile salt), and simultaneously administered intragastrically at a dose of 0.1 ml/10 g body weight, and were continuously administered and fed for 8 weeks to establish an atherosclerosis model.
The mice were anesthetized. The thoracic aorta was quickly taken, after carefully stripping the surrounding tissue, was cut into a vascular ring with a length of about 3 mm. The vascular ring was carefully hung on a tonotransducer, given an initial tension of 0.5 g and equilibrated for 90 minutes or more. During the equilibration process, the fluid was replaced every 20 minutes, aeration was maintained and the temperature was maintained at 37° C. The vascular ring was equilibrated for about 1 hour and stimulated twice with saturated KCl (60 mM) to detect whether the blood vessel was active. After vasoconstriction was stabilized, KCl was washed away immediately. After the last replacement of the fluid, the vascular ring was equilibrated for 20 minutes, given phenylephrine 1 μM to stimulate vasoconstriction, and after vasoconstriction was stabilized, it was cumulatively administered with acetylcholine (Ach, 1×10^−10 to […]) and sodium nitroprusside (SNP, 10^−10 to 10^−4 M) to record the vasodilation curve. Vasodilation rate=[PE-induced vascular tone (g)-vascular tension after addition of ACh (g)][…][PE contraction-induced tension (g)-basal vascular tone (g)]×100%.

CC(=O)OCC1OC(n2cnc3c(Nc4cccc(O)c4)ncnc32)C(OC(C)=O)C1OC(C)=O (stereo not drawn) [IMM-H007, 2′,3,′ 5′-triacetyl-N^6(3-hydroxyphenyl)adenosine]
sodium nitroprusside endothelium-independent relaxation of aortic vessel (50 mg/kg, 1 × 10^−4 M SNP): 97.8 ± 4.9% | acetylcholine endothelium-dependent relaxation of aortic vessel (50 mg/kg, 1 × 10^−5 M Ach): 91.0 ± 2.3 % | sodium nitroprusside endothelium-independent relaxation of aortic vessel (50 mg/kg, 1 × 10^−5 M SNP): 89.4 ± 6.8% | acetylcholine endothelium-dependent relaxation of aortic vessel (50 mg/kg, 1 × 10^−6 M Ach): 67.5 ± 11.0 % | sodium nitroprusside endothelium-independent relaxation of aortic vessel (50 mg/kg, 1 × 10^−6 M SNP): 87.2 ± 10.1% | acetylcholine endothelium-dependent relaxation of aortic vessel (50 mg/kg, 1 × 10^−7 M Ach): 54.1 ± 18.8 % | sodium nitroprusside endothelium-independent relaxation of aortic vessel (50 mg/kg, 1 × 10^−7 M SNP): 68.3 ± 20.5% | acetylcholine endothelium-dependent relaxation of aortic vessel (50 mg/kg, 1 × 10^−8 M Ach): 39.2 ± 14.0% | sodium nitroprusside endothelium-independent relaxation of aortic vessel (50 mg/kg, 1 × 10^−8 M SNP): 58.4 ± 13.8% | acetylcholine endothelium-dependent relaxation of aortic vessel (50 mg/kg, 1 × 10^−9 M Ach): 29.3 ± 11.2% | sodium nitroprusside endothelium-independent relaxation of aortic vessel (50 mg/kg, 1 × 10^−9 M SNP): 43.1 ± 24.6% | acetylcholine endothelium-dependent relaxation of aortic vessel (50 mg/kg, 1 × 10^−10 M Ach): 11.6 ± 7.0% | sodium nitroprusside endothelium-independent relaxation of aortic vessel (50 mg/kg, 1 × 10^−10 M SNP): 18.0 ± 16.3% | acetylcholine endothelium-dependent relaxation of aortic caused by high fat (50 mg/kg, compared with the model control group): significantly improve | sodium nitroprusside endothelium-independent relaxation of aortic vessel (200 mg/kg, 1 × 10^−4 M SNP): 97.9 ± 10.8% | acetylcholine endothelium-dependent relaxation of aortic vessel (200 mg/kg, 1 × 10^−5 M Ach): 97.8 ± 8.2 % | sodium nitroprusside endothelium-independent relaxation of aortic vessel (200 mg/kg, 1 × 10^−5 M SNP): 95.4 ± 8.5% | acetylcholine endothelium-dependent relaxation of aortic vessel (200 mg/kg, 1 × 10^−6 M Ach): 87.4 ± 10.9 % | sodium nitroprusside endothelium-independent relaxation of aortic vessel (200 mg/kg, 1 × 10^−6 M SNP): 94.1 ± 20.6% | acetylcholine endothelium-dependent relaxation of aortic vessel (200 mg/kg, 1 × 10^−7 M Ach): 64.2 ± 17.7 % | sodium nitroprusside endothelium-independent relaxation of aortic vessel (200 mg/kg, 1 × 10^−7 M SNP): 73.6 ± 23.3% | acetylcholine endothelium-dependent relaxation of aortic vessel (200 mg/kg, 1 × 10^−8 M Ach): 47.6 ± 22.5% | sodium nitroprusside endothelium-independent relaxation of aortic vessel (200 mg/kg, 1 × 10^−8 M SNP): 62.3 ± 22.7% | acetylcholine endothelium-dependent relaxation of aortic vessel (200 mg/kg, 1 × 10^−9 M Ach): 31.4 ± 18.5% | sodium nitroprusside endothelium-independent relaxation of aortic vessel (200 mg/kg, 1 × 10^−9 M SNP): 30.5 ± 20.8% | acetylcholine endothelium-dependent relaxation of aortic vessel (200 mg/kg, 1 × 10^−10 M Ach): 9.4 ± 3.9% | sodium nitroprusside endothelium-independent relaxation of aortic vessel (200 mg/kg, 1 × 10^−10 M SNP): 12.4 ± 8.4%
